From patent publication US8669249B2, “Poly (ADP-ribose) polymerase (PARP) inhibitors” (Takeda Pharmaceutical Company Limited, priority 2009, dated 2014) come the findings set out here.

What is called IC50 is the concentration that inhibits the measured activity by half. Low readings indicate higher potency, high ones lower potency.

In one assay the test system is Jurkat cell line. Nature of the assay: PARP cellular chemopotentiation assay (MTS, with/without TMZ). The format is cell-based. Particulars: Chemopotentiation factor: ratio of EC50 values of Jurkat cells co-treated without and with 100 μM TMZ; 96 hours. The gist of the method: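 Jurkat cells, 10,000/well, pre-cultured 24 h, then treated 96 h with serial compound dilutions (0.5% DMSO) with or without 100 μM TMZ. Viability by MTS conversion (OD490), normalized to DMSO controls; EC50 from curve fits, PF50 = EC50 without TMZ / EC50 with TMZ.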

In a further assay the target is T1, PARP (Homo sapiens, UniProt P09874).
T1 construct: purchased Trevigen 4684-096-K HT (kit); 4684-096-01 (PARP enzyme)
T1 sequence (P09874 whole entry): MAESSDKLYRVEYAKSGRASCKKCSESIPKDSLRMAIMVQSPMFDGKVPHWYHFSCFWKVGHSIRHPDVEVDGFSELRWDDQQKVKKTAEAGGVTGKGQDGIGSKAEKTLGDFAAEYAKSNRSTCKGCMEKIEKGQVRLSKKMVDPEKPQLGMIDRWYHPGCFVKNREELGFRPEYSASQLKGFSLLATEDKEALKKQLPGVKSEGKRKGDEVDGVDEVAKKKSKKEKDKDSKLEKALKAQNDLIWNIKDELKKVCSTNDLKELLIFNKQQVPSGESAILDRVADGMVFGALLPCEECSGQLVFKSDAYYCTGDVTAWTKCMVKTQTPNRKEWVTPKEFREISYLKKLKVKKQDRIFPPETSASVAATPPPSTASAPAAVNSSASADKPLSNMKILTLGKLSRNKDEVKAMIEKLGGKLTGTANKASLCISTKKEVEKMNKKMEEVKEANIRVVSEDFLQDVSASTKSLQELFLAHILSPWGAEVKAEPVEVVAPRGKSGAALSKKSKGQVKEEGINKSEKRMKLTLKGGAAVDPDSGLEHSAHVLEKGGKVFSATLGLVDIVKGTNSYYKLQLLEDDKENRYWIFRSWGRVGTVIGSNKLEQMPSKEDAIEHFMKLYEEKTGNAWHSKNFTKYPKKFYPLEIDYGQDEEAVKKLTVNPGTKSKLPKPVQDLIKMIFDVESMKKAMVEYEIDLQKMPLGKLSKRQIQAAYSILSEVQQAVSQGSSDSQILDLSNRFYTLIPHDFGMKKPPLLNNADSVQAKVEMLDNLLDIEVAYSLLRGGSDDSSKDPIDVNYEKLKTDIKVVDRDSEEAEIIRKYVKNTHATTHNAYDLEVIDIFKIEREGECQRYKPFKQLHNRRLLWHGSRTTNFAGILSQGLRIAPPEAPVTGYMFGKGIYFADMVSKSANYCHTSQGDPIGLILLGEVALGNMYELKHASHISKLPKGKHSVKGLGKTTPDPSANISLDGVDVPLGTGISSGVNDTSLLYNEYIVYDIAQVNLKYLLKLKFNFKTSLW
Nature of the assay: PARP ELISA (ELISA-based colorimetric PARP/Apoptosis Assay kit, Trevigen). It counts as biochemical. The conditions noted are these: pIC50=-log10 IC50, IC50 in mol/L; inhibition of PARP catalytic activity. The gist of the method:
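Quenched after 10 min catalysis by aspiration and four PBS/0.1% Triton X-100 washes. Poly(ADP-ribose) detected with mouse anti-PAR monoclonal antibody, goat anti-mouse IgG-HRP and HRP substrate; colorimetric signal proportional to PARP catalytic activity.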

With `CC1Oc2ccc(Cn3cc4ccccc4n3)cc2NC1=O` (stereo not drawn) [Compound 344, 6-((2H-Indazol-2-yl)methyl)-2-methyl-2H-benzo[b][1,4]oxazin-3(4H)-one], the PF50 with Jurkat cell line was 1.3. The molecule further had an IC50 on PARP of more than 200 nM.
Regarding `Cc1cc(CN2CCN(c3ccc(C(=O)NC4CC4)cc3F)CC2)cc2c1OC(C)C(=O)N2` (stereo not drawn) [Compound 387, N-Cyclopropyl-4-(4-((2,8-dimethyl-3-oxo-3,4-dihydro-2H-benzo[b][1,4]oxazin-6-yl)methyl)piperazin-1-yl)-3-fluorobenzamide], in the assay on Jurkat cell line, the PF50 is on record as more than 5.0. Moreover, the concentration for half-maximal inhibition (IC50) against PARP was 50.1 nM.
On the same counts, the results for `CCNC(=O)c1ccc(N2CCN(Cc3cc(Cc4ccccc4)c4c(c3)NC(=O)C(C)O4)CC2)cc1` (stereo not drawn) [Compound 355, 4-(4-((8-Benzyl-2-methyl-3-oxo-3,4-dihydro-2H-benzo[b][1,4]oxazin-6-yl)methyl)piperazin-1-yl)-N-ethylbenzamide] are 1.3 and more than 200 nM.
On the same counts, the results for `CCNC(=O)c1ccc(N2CCN(Cc3ccc4c(c3)NC(=O)[C@@H](C)O4)CC2)cc1` [Compound 250, (R)-N-Ethyl-4-(4-((2-methyl-3-oxo-3,4-dihydro-2H-benzo[b][1,4]oxazin-6-yl)methyl)piperazin-1-yl)benzamide] are 2.0-9.9 and not above 31.6 nM.
On the same counts, the results for `CNC(=O)c1ccc(N2CCN(Cc3cc4c(c(OC)c3)OC(C)C(=O)N4)CC2)c(C)c1` (stereo not drawn) [Compound 362, 4-(4-((8-Methoxy-2-methyl-3-oxo-3,4-dihydro-2H-benzo[b][1,4]oxazin-6-yl)methyl)piperazin-1-yl)-N,3-dimethylbenzamide] are more than 1700 and 31.6 nM.
`CC1Oc2c(cc(CN3CCN(c4ccc(C(=O)NC5CC5)cc4)CC3)cc2-c2ccccc2)NC1=O` (stereo not drawn) [Compound 351, N-Cyclopropyl-4-(4-((2-methyl-3-oxo-8-phenyl-3,4-dihydro-2H-benzo[b][1,4]oxazin-6-yl)methyl)piperazin-1-yl)benzamide]: the PF50 in the assay on Jurkat cell line amounted to 1.0. This molecule also had a half-inhibitory concentration (IC50) on PARP of more than 200 nM.
Taken in the same sequence, the figures for `CCOc1cc(CN2CCN(c3ccc(C(=O)NC)cc3)CC2)cc2c1OC(C)C(=O)N2` (stereo not drawn) [Compound 398, 4-(4-((8-Ethoxy-2-methyl-3-oxo-3,4-dihydro-2H-benzo[b][1,4]oxazin-6-yl)methyl)piperazin-1-yl)-N-methylbenzamide] were more than 2.0 and 79.4 nM.
On the same counts, the results for `CNC(=O)c1ccc(N2CCN(Cc3cc(F)c4c(c3)NC(=O)C(C)O4)CC2)nc1` (stereo not drawn) [Compound 314, 6-(4-((8-Fluoro-2-methyl-3-oxo-3,4-dihydro-2H-benzo[b][1,4]oxazin-6-yl)methyl)piperazin-1-yl)-N-methylnicotinamide] are 1.8 and 31.6 nM.
Taken in the same sequence, the figures for `CCNC(=O)c1ccc(N2CCN(Cc3ccc4c(c3)NC(=O)C(C)O4)CC2)c(Cl)c1` (stereo not drawn) [Compound 371, 3-Chloro-N-ethyl-4-(4-((2-methyl-3-oxo-3,4-dihydro-2H-benzo[b][1,4]oxazin-6-yl)methyl)piperazin-1-yl)benzamide] were more than 20 and 15.8 nM.
With `COc1cc(CN2CCN(c3ccc(C(=O)NC4CC4)cc3F)CC2)cc2c1OC(C)C(=O)N2` (stereo not drawn) [Compound 372, N-Cyclopropyl-3-fluoro-4-{4-[(8-methoxy-2-methyl-3-oxo-3,4-dihydro-2H-1,4-benzoxazin-6-yl)methyl]piperazin-1-yl}benzamide], the PF50 with Jurkat cell line is 1.0. In addition, half-maximal inhibition against PARP (IC50) was put at 20 nM.
Taken in the same sequence, the figures for `CC1Oc2c(Cc3ccccc3)cc(CN3CCN(c4ccc(C(=O)NC5CC5)cc4)CC3)cc2NC1=O` (stereo not drawn) [Compound 354, 4-(4-((8-Benzyl-2-methyl-3-oxo-3,4-dihydro-2H-benzo[b][1,4]oxazin-6-yl)methyl)piperazin-1-yl)-N-cyclopropylbenzamide] were 1.0 and more than 200 nM.
On the same counts, the results for `CCNC(=O)c1ccc(N2CCN(Cc3cc4c(c(C5CC5)c3)OC(C)C(=O)N4)CC2)cc1` (stereo not drawn) [Compound 346, 4-(4-((8-Cyclopropyl-2-methyl-3-oxo-3,4-dihydro-2H-benzo[b][1,4]oxazin-6-yl)methyl)piperazin-1-yl)-N-ethylbenzamide] are 8.6 and 100 nM.
On the same counts, the results for `CNC(=O)c1ccc(N2CCN(Cc3cc(Cc4ccccc4)c4c(c3)NC(=O)C(C)O4)CC2)cc1` (stereo not drawn) [Compound 353, 4-(4-((8-Benzyl-2-methyl-3-oxo-3,4-dihydro-2H-benzo[b][1,4]oxazin-6-yl)methyl)piperazin-1-yl)-N-methylbenzamide] are 1.3 and more than 200 nM.
Turning to `CC1Oc2c(cc(CN3CCN(c4ccc(C#N)cc4)CC3)cc2C2CC2)NC1=O` (stereo not drawn) [Compound 352, 4-(4-((8-Cyclopropyl-2-methyl-3-oxo-3,4-dihydro-2H-benzo[b][1,4]oxazin-6-yl)methyl)piperazin-1-yl)benzonitrile], in the assay on Jurkat cell line, the PF50 is 6.3. At PARP, this molecule showed a 50% inhibitory concentration (IC50) of 79.4 nM.
Taken in the same sequence, the figures for `CCNC(=O)c1ccc(N2CCN(Cc3cc4c(c(OC)c3)OC(C)C(=O)N4)CC2)c(C)c1` (stereo not drawn) [Compound 363, N-ethyl-4-(4-((8-methoxy-2-methyl-3-oxo-3,4-dihydro-2H-benzo[b][1,4]oxazin-6-yl)methyl)piperazin-1-yl)-3-methylbenzamide] were 6522 and 31.6 nM.
On the same counts, the results for `CCNC(=O)c1ccc(N2CCN(Cc3cc(C)c4c(c3)NC(=O)C(C)O4)CC2)c(Cl)c1` (stereo not drawn) [Compound 382, 3-Chloro-4-(4-((2,8-dimethyl-3-oxo-3,4-dihydro-2H-benzo[b][1,4]oxazin-6-yl)methyl)piperazin-1-yl)-N-ethylbenzamide] are 3.4 and 79.4 nM.
As to `CCNC(=O)c1ccc(N2CCN(Cc3cc4c(c(OC)c3)OCC(=O)N4)CC2)c(C)c1` [Compound 374, N-Ethyl-4-(4-((8-methoxy-3-oxo-3,4-dihydro-2H-benzo[b][1,4]oxazin-6-yl)methyl)piperazin-1-yl)-3-methylbenzamide], the PF50 in the assay with Jurkat cell line is less than 2.0. The same molecule had a concentration for half-maximal inhibition (IC50) against PARP of 31.6 nM.
Taken in the same sequence, the figures for `CCNC(=O)c1ccc(N2CCN(Cc3cc(Cl)c4c(c3)NC(=O)C(C)O4)CC2)cc1` (stereo not drawn) [Compound 309, 4-(4-((8-Chloro-2-methyl-3-oxo-3,4-dihydro-2H-benzo[b][1,4]oxazin-6-yl)methyl)piperazin-1-yl)-N-ethylbenzamide] were 5.2 and 5.01 nM.
On the same counts, the results for `CNC(=O)c1ccc(N2CCN(Cc3cc(C)c4c(c3)NC(=O)C(C)O4)CC2)c(C)c1` (stereo not drawn) [Compound 384, 4-(4-((2,8-Dimethyl-3-oxo-3,4-dihydro-2H-benzo[b][1,4]oxazin-6-yl)methyl)piperazin-1-yl)-N,3-dimethylbenzamide] are 8.4 and 39.8 nM.
Taken in the same sequence, the figures for `CCNC(=O)c1ccc(N2CCN(Cc3cc4c(cc3F)OC(C)C(=O)N4)CC2)cc1` (stereo not drawn) [Compound 336, N-Ethyl-4-(4-((7-fluoro-2-methyl-3-oxo-3,4-dihydro-2H-benzo[b][1,4]oxazin-6-yl)methyl)piperazin-1-yl)benzamide] were 2.1 and 100 nM.
As for `CNC(=O)c1ccc(N2CCC(Cc3ccc4c(c3)NC(=O)C(C)O4)CC2)cc1` (stereo not drawn) [Compound 390, N-Methyl-4-(4-((2-methyl-3-oxo-3,4-dihydro-2H-benzo[b][1,4]oxazin-6-yl)methyl)piperidin-1-yl)benzamide], the PF50 in the assay on Jurkat cell line worked out at 1.0. Besides, the 50% inhibitory concentration (IC50) against PARP was more than 200 nM.
Taken in the same sequence, the figures for `CNC(=O)c1ccc(N2CCN(Cc3cc4c(c(OC)c3)OC(C)C(=O)N4)CC2)c(F)c1` (stereo not drawn) [Compound 365, 3-Fluoro-4-(4-((8-methoxy-2-methyl-3-oxo-3,4-dihydro-2H-benzo[b][1,4]oxazin-6-yl)methyl)piperazin-1-yl)-N-methylbenzamide] were 1.3 and 31.6 nM.
On the same counts, the results for `CCOc1cc(CN2CCN(c3ccc(C(=O)NC)cc3C)CC2)cc2c1OC(C)C(=O)N2` (stereo not drawn) [Compound 400, 4-(4-((8-Ethoxy-2-methyl-3-oxo-3,4-dihydro-2H-benzo[b][1,4]oxazin-6-yl)methyl)piperazin-1-yl)-N,3-dimethylbenzamide] are 1211 and 31.6 nM.
Regarding `CC1Oc2c(Cl)cc(CN3CC=C(c4ccc(Cl)cc4)CC3)cc2NC1=O` (stereo not drawn) [Compound 166, 8-Chloro-6-((4-(4-chlorophenyl)-5,6-dihydropyridin-1(2H)-yl)methyl)-2-methyl-2H-benzo[b][1,4]oxazin-3(4H)-one], the PF50 in the assay on Jurkat cell line was 1.0-1.9. This molecule also had an IC50 at PARP not below 126 nM.
Taken in the same sequence, the figures for `CC1Oc2c(Cl)cc(CN3CCN(c4ccc(Cl)cc4)CC3)cc2NC1=O` (stereo not drawn) [Compound 167, 8-Chloro-6-((4-(4-chlorophenyl)piperazin-1-yl)methyl)-2-methyl-2H-benzo[b][1,4]oxazin-3(4H)-one] were “≦0.9” and 39.8 to 100 nM.
`CC1Oc2ccc(CN3CCN(c4ccc(C(=O)N5CCCC5)cc4)CC3)cc2NC1=O` (stereo not drawn) [Compound 377, 2-Methyl-6-((4-(4-(pyrrolidine-1-carbonyl)phenyl)piperazin-1-yl)methyl)-2H-benzo[b][1,4]oxazin-3(4H)-one]: the PF50 with Jurkat cell line was 1.0. Also, at PARP, the IC50 is more than 200 nM.
On the same counts, the results for `CC1Oc2cc(F)c(CN3CC=C(c4ccc(Cl)cc4)CC3)cc2NC1=O` (stereo not drawn) [Compound 331, 6-((4-(4-Chlorophenyl)-5,6-dihydropyridin-1(2H)-yl)methyl)-7-fluoro-2-methyl-2H-benzo[b][1,4]oxazin-3(4H)-one] are 1.3 and more than 200 nM.
